Experimental findings from patent US20090099169A1, “Benzofuran Compounds As EP1 Receptor Antagonists” (GLAXO GROUP LIMITED, priority 2006, published 2009) are described below.

Assay [1] concerns the target T1, human EP1 receptor (Homo sapiens, UniProt P34995).
T1 sequence (P34995 1-402): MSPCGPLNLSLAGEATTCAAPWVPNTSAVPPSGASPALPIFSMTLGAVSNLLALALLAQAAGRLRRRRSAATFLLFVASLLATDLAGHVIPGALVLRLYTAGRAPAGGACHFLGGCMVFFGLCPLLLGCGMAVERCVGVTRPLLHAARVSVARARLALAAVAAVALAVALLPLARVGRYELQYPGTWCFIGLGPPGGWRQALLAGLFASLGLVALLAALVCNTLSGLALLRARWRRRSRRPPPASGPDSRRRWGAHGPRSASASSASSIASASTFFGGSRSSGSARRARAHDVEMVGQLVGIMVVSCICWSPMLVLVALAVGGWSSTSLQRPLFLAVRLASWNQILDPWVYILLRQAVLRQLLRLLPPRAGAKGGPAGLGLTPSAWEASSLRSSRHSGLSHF
Nature of the assay: Binding assay for the human prostanoid EP1 receptor (radioligand competition). The arrangement: expressed in transfected cells; host or cells: CHO-K1 (membranes). To be noted: CHO-K1 membranes; [3H]-PGE2 for Examples 1-17, 19, 33, 34, 60 and 61, 3-{2-[5-Bromo-2-(2,4-difluorobenzyloxy)-phenyl]-5-methyl-pyrrol-1-yl}-6-[3H3-methoxy]methoxy-benzoic acid for the remaining; averages of a number of experiments; read-out: pIC50 value (binding assay for the human prostanoid EP1 receptor) (converted). The procedure: Compound potencies are determined using a radioligand binding assay. In this assay compound potencies are determined from their ability to compete with tritiated prostaglandin E2 ([^3H]-PGE2) for binding to the human EP1 receptor.
This assay utilises Chinese hamster ovary-K1 (CHO-K1) cells into which a stable vector containing the EP1 cDNA has previously been transfected. Cells are cultured in suitable flasks containing culture medium such as DMEM:F-12 supplemented with 10% v/v foetal calf serum, 2 mM L-glutamine, 0.25 mg/ml geneticin, 10 μg/ml puromycin and 10 μM indomethacin.
Cells are detached from the culture flasks by incubation in calcium and magnesium free phosphate buffered saline containing 1 mM disodium ethylenediaminetetraacetic acid (Na2EDTA) and […] indomethacin for 5 min. The cells are isolated by centrifugation at 250×g for 5mins and suspended in an ice cold buffer such as 50 mM Tris, 1 mM Na2EDTA, 140 mM NaCl, 10 μM indomethacin (pH 7.4). The cells are homogenised using a Polytron tissue disrupter (2×10 s burst at full setting), centrifuged at 48,000×g for 20mins and the pellet containing the membrane fraction is washed (optional) three times by suspension and centrifugation at 48,000×g for 20mins. The final membrane pellet is suspended in an assay buffer such as 10 mM 2-[N-morpholino]ethanesulphonic acid, 1 mM Na2EDTA, 10 mM MgCl2 (pH 6). Aliquots are frozen at −80° C. until required.
For the binding assay the cell membranes, competing compounds and [^3H]-PGE2 (3 nM final assay concentration) are incubated in a final volume of 100 μl for 30 min at 30° C. All reagents are prepared in assay buffer. Reactions are terminated by rapid vacuum filtration over GF/B filters using a Brandell cell harvester. The filters are washed with ice cold assay buffer, dried and the radioactivity retained on the filters is measured by liquid scintillation counting in Packard TopCount scintillation counter.
The data are analysed using non linear curve fitting techniques to determine the concentration of compound producing 50% inhibition of specific binding (IC50).
Alternatively a similar assay may be carried out using 3-{2-[5-Bromo-2-(2,4-difluoro-benzyloxy)-phenyl]-5-methyl-pyrrol-1-yl}-6-[^3H3-methoxy]methoxy-benzoic acid instead of [^3H]-PGE2.
For the binding assay using 3-{2-[5-Bromo-2-(2,4-difluoro-benzyloxy)-phenyl]-5-methyl-pyrrol-1-yl}-6-[^3H3-methoxy]methoxy-benzoic acid instead of [^3H]-PGE2 the assay is carried out using a similar procedure to that described above using [^3H]-PGE2 with the following changes:
The cell membranes, competing compounds and 3-{2-[5-Bromo-2-(2,4-difluoro-benzyloxy)-phenyl]-5-methyl-pyrrol-1-yl}-6-[^3H3-methoxy]methoxy-benzoic acid (0.2 nM final assay concentration) are incubated in a final volume of 400 μl for 45 min at 37° C. All reagents are prepared in assay buffer. Reactions are terminated by rapid vacuum filtration over GF/B filters using a Brandell cell harvester. The filters are washed with water at ambient temperature, dried and the radioactivity retained on the filters is measured by liquid scintillation counting in Packard TopCount scintillation counter.
The preparation of 3-{2-[5-Bromo-2-(2,4-difluoro-benzyloxy)-phenyl]-5-methyl-pyrrol-1-yl}-6-methoxy-benzoic acid is described in WO 03/101959 and in Hall et al, Biorg. Med. Chem. Lett., 2007, 17, 916-920. The tritiated version may be prepared via conventional routes, e.g. from 3-{2-[5-bromo-2-(2,4-difluoro-benzyloxy)-phenyl]-5-methyl-pyrrol-1-yl}-6-hydroxy-benzoic acid or 3-{2-[5-bromo-2-(2,4-difluoro-benzyloxy)-phenyl]-5-methyl-pyrrol-1-yl}-6-hydroxy-benzoic acid methyl ester.

For assay [2], the target named is T1, human EP1 receptor. Nature of the assay: human EP1 calcium mobilisation assay. It counts as cell-based. The arrangement: expressed in transfected cells. To be noted: CHO-K1 cells, antagonism of PGE2; averages of a number of experiments; read-out: functional pKi value (human EP1 calcium mobilisation assay) (converted). The essentials: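 CHO-K1 cells stably transfected with human EP1 or EP3, loaded with Fluo-4 after 24 h culture, treated with compound, then challenged with PGE2. Calcium-driven fluorescence read on FLIPR; pIC50 is half-maximal inhibition of PGE2-induced calcium mobilisation, from curve fitting.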
(Calcium assays in cells follow changes in intracellular calcium, usually with a dye or a luminescent sensor.)

A further assay addresses T2, human EP3 receptor (Homo sapiens, UniProt P43115).
T2 construct: expressed in transfected cells; host or cells: CHO-K1
T2 sequence (P43115 1-390): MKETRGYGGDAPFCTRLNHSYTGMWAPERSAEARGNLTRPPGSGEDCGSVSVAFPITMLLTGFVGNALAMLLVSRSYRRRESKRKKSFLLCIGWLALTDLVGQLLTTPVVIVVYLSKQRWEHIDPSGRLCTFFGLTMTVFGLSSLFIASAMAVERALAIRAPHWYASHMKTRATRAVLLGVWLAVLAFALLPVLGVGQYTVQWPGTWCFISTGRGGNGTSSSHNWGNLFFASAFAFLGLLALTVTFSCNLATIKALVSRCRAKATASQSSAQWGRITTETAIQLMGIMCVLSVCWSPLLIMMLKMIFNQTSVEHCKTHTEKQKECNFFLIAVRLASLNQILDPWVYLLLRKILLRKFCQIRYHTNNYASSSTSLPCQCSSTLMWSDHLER
Nature of the assay: human EP3 calcium mobilisation assay. To be noted: CHO-K1 cells, antagonism of PGE2; averages of a number of experiments; read-out: functional pKi value (human EP3 calcium mobilisation assay) (converted). It counts as cell-based. The procedure:
Briefly, the antagonist properties of compounds are assessed by their ability to inhibit the mobilisation of intracellular calcium ([Ca^2+]i) in response to activation of EP1 or EP3 receptors by the natural agonist hormone prostaglandin E2 (PGE2). Increasing concentrations of antagonist reduce the amount of calcium that a given concentration of PGE2 can mobilise. The net effect is to displace the PGE2 concentration-effect curve to higher concentrations of PGE2. The amount of calcium produced is assessed using a calcium-sensitive fluorescent dye such as Fluo-4, AM and a suitable instrument such as a Fluorimetric Imaging Plate Reader (FLIPR). Increasing amounts of [Ca^2+]i produced by receptor activation increase the amount of fluorescence produced by the dye and give rise to an increasing signal. The signal may be detected using the FLIPR instrument and the data generated may be analysed with suitable curve-fitting software.
The human EP1 or EP3 calcium mobilisation assay (hereafter referred to as ‘the calcium assay’) utilises Chinese hamster ovary-K1 (CHO-K1) cells into which a stable (PCIN; BioTechniques 20 (1996): 102-110) vector containing either EP1 or EP3 cDNA has previously been transfected. Cells are cultured in suitable flasks containing culture medium such as DMEM:F-12 supplemented with 10% v/v foetal calf serum, 2 mM L-glutamine, 0.25 mg/ml geneticin, 100 μM flurbiprofen and 10 μg/ml puromycin.
For assay, cells are harvested using a proprietary reagent that dislodges cells such as Versene. Cells are re-suspended in a suitable quantity of fresh culture media for introduction into a 384-well plate. Following incubation for 24 hours at 37° C. the culture media is replaced with a medium containing Fluo-4 and the detergent pluronic acid, and a further incubation takes place. Concentrations of compounds are then added to the plate in order to construct concentration-effect curves. This may be performed on the FLIPR in order to assess the agonist properties of the compounds. Concentrations of PGE2 are then added to the plate in order to assess the antagonist properties of the compounds.
The data so generated may be analysed by means of a computerised curve-fitting routine. The concentration of compound that elicits a half-maximal inhibition of the calcium mobilisation induced by PGE2 (pIC50) may then be estimated.

Structures can show the parent of a compound that is named as a salt. Bounds are passed on as bounds.

As for `CC(C)c1cc2cc(Cl)cc(Cc3cccc(C(=O)NN4CCOCC4)n3)c2o1` [Example 44, 6-{[5-Chloro-2-(1-methylethyl)-1-benzofuran-7-yl]methyl}-N-4-morpholinyl-2-pyridinecarboxammide], the IC50 at human EP1 receptor [1] was not above 100 nM. For the same compound, the values for the Ki at human EP1 receptor [2] and on human EP3 receptor were not above 316 nM and 501 to 10000 nM, respectively.

For the compound `Cc1cc(C(=O)O)nn1Cc1cc(Cl)cc2cc(C3CCCCC3)oc12` [Example 26, 1-[(5-Chloro-2-cyclohexyl-1-benzofuran-7-yl)methyl]-5-methyl-1H-pyrazole-3-carboxylic Acid], the IC50 on human EP1 receptor [1] was not above 100 nM. Moreover, the Ki at human EP1 receptor [2] was not above 316 nM; at human EP3 receptor, 501 to 10000 nM.

As to `Cc1cc(C(=O)O)nn1Cc1cc(S(C)(=O)=O)cc2cc(C(C)C)oc12` [Example 22, 5-methyl-1-{[2-(1-methylethyl)-5-(methylsulfonyl)-1-benzofuran-7-yl]methyl}-1H-pyrazole-3-carboxylic Acid], the IC50 at human EP1 receptor [1] is not above 100 nM. The Ki at human EP1 receptor [2] was not above 316 nM; on human EP3 receptor, 501 to 10000 nM.

Turning to `CCCc1cc2cc(Cl)cc(Cn3nc(C(=O)O)cc3C)c2o1` [Example 21, 1-[(5-chloro-2-propyl-1-benzofuran-7-yl)methyl]-5-methyl-1H-pyrazole-3-carboxylic Acid], on human EP1 receptor [1], the IC50 was not above 100 nM. Moreover, the Ki on human EP1 receptor [2] is not above 316 nM; on human EP3 receptor, 501 to 10000 nM.

With `CC(C)c1cc2cc(Cl)cc(Cc3ccc(C(=O)Nc4ccc(CN5CCC(O)CC5)cc4)o3)c2o1` [Example 55, 5-{[5-Chloro-2-(1-methylethyl)-1-benzofuran-7-yl]methyl}-N-{4-[(4-hydroxy-1-piperidinyl)methyl]phenyl}-2-furancarboxamide Hydrochloride], the IC50 at human EP1 receptor [1] was not above 100 nM. Further, the figures for the Ki at human EP1 receptor [2] and at human EP3 receptor were not above 316 nM and 501 to 10000 nM, respectively.

Turning to `CC(C)c1cc2cc(Cl)cc(Cc3ccc(C(=O)Nc4ccc(CO)cc4)o3)c2o1` [Example 72, 5-{[5-Chloro-2-(1-methylethyl)-1-benzofuran-7-yl]methyl}-N-[4-(hydroxymethyl)phenyl]-2-furancarboxamide], the IC50 on human EP1 receptor [1] is not above 100 nM. In addition, the Ki was not above 316 nM at human EP1 receptor [2] and 501 to 10000 nM at human EP3 receptor.
